Read-outs that look alike come from different tables or passages of the source.

The target of one data set is T1, androgen receptor (AR) (Homo sapiens, UniProt P10275).
T1 sequence (P10275 1-920): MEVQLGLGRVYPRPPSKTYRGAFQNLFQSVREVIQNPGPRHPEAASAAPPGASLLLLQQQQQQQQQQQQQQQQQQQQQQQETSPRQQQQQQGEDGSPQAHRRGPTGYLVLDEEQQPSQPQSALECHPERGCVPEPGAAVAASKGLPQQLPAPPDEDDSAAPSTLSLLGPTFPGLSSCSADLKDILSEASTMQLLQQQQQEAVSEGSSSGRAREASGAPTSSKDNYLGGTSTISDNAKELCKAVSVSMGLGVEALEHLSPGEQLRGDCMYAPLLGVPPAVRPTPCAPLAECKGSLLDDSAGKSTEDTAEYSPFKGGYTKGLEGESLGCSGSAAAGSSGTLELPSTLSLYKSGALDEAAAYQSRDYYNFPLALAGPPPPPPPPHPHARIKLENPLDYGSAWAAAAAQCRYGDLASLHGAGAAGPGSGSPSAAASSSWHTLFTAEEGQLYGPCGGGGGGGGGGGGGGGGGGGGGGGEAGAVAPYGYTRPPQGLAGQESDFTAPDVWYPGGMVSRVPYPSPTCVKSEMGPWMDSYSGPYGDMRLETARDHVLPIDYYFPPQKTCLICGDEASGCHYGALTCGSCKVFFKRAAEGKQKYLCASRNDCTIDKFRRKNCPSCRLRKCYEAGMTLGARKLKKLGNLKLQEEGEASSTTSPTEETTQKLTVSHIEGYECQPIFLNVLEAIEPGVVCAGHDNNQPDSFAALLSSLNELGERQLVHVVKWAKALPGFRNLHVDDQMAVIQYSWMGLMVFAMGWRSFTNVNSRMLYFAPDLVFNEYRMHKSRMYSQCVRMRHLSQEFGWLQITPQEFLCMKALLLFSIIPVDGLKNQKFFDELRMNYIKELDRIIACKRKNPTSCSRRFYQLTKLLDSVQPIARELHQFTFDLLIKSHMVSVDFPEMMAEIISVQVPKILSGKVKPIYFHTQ
The note with it: for Ligand Efficiency (LE): from VCaP GRE2-luciferase IC50; for Lipophilic Ligand Efficiency (LLE): from VCaP GRE2-luciferase IC50 and cLogP.

The subject of data set [1] is prostate-specific antigen (PSA) expression. In words: Inhibition of hormone-dependent expression of PSA in VCaP cells (Western blot). The conditions noted are these: 50 μM, 1 nM DHT, 24 h. The class given is cell-based. In general terms: Immunoblotting shows a protein as a band on a membrane.
Protocol: In addition to this, we evaluated hormone-dependent expression of prostate-specific antigen (PSA) in VCaP cells (see the Supporting Information).
(§1) VCaP cells, obtained from the American Type Culture Collection, were maintained in Dulbecco’s Modified Eagles Medium (DMEM) supplemented with 10% foetal bovine serum. Cells were maintained at 37°C without antibiotics in a humidified atmosphere
(§2) Inhibition of hormone-dependent expression of prostate specific antigen (PSA):
(§3) VCaP prostate cells were treated with 1 nM DHT in the absence or presence of inhibitor. After 24 hours cells were harvested and PSA detected by Western blotting and normalised against β-actin.
[2] abbreviates: read-out: VCaP GRE2-luciferase IC50, VCaP cells, 1 nM DHT, 24 h, 0–30 µM compound.

Protocol for androgen receptor (AR): as §1
Transient transfection and Luciferase Activity Assay:
Cells at 70–80% confluence in 24 well plates, were transferred to DMEM
300ng/well of the firefly reporter plasmid, GRE2-TATA-luc using JetPEI (PolyPLUS Transfection) according to the manufacturers’ protocol.
replaced with fresh DMEM +5% CSS containing either DMSO (vehicle control) or 0– 30 µM small molecules together with 1nM DHT. Twenty four hours later, medium was aspirated, cells were washed with PBS and extracted with Passive Lysis Buffer
Cell debris was removed by centrifugation at 13,000 xg for 5min and supernatants collected. Luciferase activity was measured in triplicate, using an in-house luciferase assay buffer (13 mM MgSO4 7H2O, 30 mM
amount of total cellular protein.
as §2, §3
Luciferase activity in cells treated with small molecules was determined as a percentage of the untreated control, which was set at 100%. Plots of activity against small molecule concentration (log) were analysed in GraphPad PRISM 5 and IC50 values for each small molecule determined.

For `Cn1ncc2cc(-c3cc(C(N)=O)ccc3NCCN3CCCCC3)ccc21` [Compound 55], at androgen receptor (AR), the “Ligand Efficiency (LE)” value is 0.37 and the “Lipophilic Ligand Efficiency (LLE)” value came out at 5.3. The IC50 on androgen receptor (AR) (setting [2]) is greater than 30000 nM.

In the case of `CSc1ccc(C(N)=O)cc1-c1ccc2ncccc2c1` [Compound 20], on androgen receptor (AR), the “Ligand Efficiency (LE)” value was determined as 0.59 and the “Lipophilic Ligand Efficiency (LLE)” value is 5.9. Also, the IC50 on androgen receptor (AR) (setting [2]) amounted to 800 nM.

In the case of `CSc1ccc(C(N)=O)cc1-c1ccc2[nH]cnc2c1` [Compound 15], on androgen receptor (AR), the “Ligand Efficiency (LE)” value is given as 0.62 and the “Lipophilic Ligand Efficiency (LLE)” value worked out at 6.6. In addition, at androgen receptor (AR) (setting [2]), the IC50 turned out to be 920 nM.

Take `Cn1ncc2cc(-c3cc(C(N)=O)ccc3NCc3ccccc3)ccc21` [Compound 52]: at androgen receptor (AR), the “Ligand Efficiency (LE)” value came out at 0.46 and the “Lipophilic Ligand Efficiency (LLE)” value is 6.2. The IC50 on androgen receptor (AR) (setting [2]) came out at 940 nM.

`CSc1ccc(C(N)=O)cc1-c1ccc2occc2c1` [Compound 25]: on androgen receptor (AR), the “Ligand Efficiency (LE)” value worked out at 0.63 and the “Lipophilic Ligand Efficiency (LLE)” value was determined as 5.9. The 50% inhibitory concentration (IC50) at androgen receptor (AR) (setting [2]) came out at 600 nM.

As for `Cn1ncc2cc(-c3cncc(C(N)=O)c3)ccc21` [Compound 36], on androgen receptor (AR), the “Ligand Efficiency (LE)” value is 0.54 and the “Lipophilic Ligand Efficiency (LLE)” value is recorded as 6.7. The IC50 at androgen receptor (AR) (setting [2]) was greater than 30000 nM.

Take `CSc1ccc(C(N)=O)cc1-c1ccc2nccn2c1` [Compound 18]: at androgen receptor (AR) (VCaP cells, 1 nM DHT), the “activity in VCaP GRE2-luciferase assay (in words)” value (“activity … (in words)” below) is listed as “no activity”. For the same compound, on androgen receptor (AR), the “Ligand Efficiency (LE)” value turned out to be 0.52 and the “Lipophilic Ligand Efficiency (LLE)” value came to 5.7. Besides, on androgen receptor (AR) (setting [2]), the IC50 was greater than 30000 nM.

`CSc1ccc(C(N)=O)cc1-c1ccc2c(ccn2C)c1` [Compound 17]: on androgen receptor (AR), the “Ligand Efficiency (LE)” value is given as 0.66 and the “Lipophilic Ligand Efficiency (LLE)” value stood at 7.0. In addition, the concentration for half-maximal inhibition (IC50) at androgen receptor (AR) (setting [2]) came to 90 nM.

Regarding `Cc1ccc(C(N)=O)cc1-c1ccc2c(cnn2C)c1` [Compound 41], the “activity … (in words)” value at androgen receptor (AR) (VCaP cells, 1 nM DHT) is recorded as “loss of activity”. Further, on androgen receptor (AR), the “Ligand Efficiency (LE)” value is 0.52 and the “Lipophilic Ligand Efficiency (LLE)” value worked out at 5.4. Moreover, the IC50 on androgen receptor (AR) (setting [2]) was greater than 30000 nM.

For the compound `CSc1ccc(C(N)=O)cc1-c1ccccc1` [Compound 8], the “activity … (in words)” value at androgen receptor (AR) (VCaP cells, 1 nM DHT) was “inactive”. Further, on androgen receptor (AR), the “Ligand Efficiency (LE)” value is 0.61 and the “Lipophilic Ligand Efficiency (LLE)” value is on record as 4.6. Besides, on androgen receptor (AR) (setting [2]), the IC50 was greater than 30000 nM.

For the compound `CSc1ccc(C(=O)N2CCCCC2)cc1-c1cncnc1` [Compound 59], on androgen receptor (AR), the “Ligand Efficiency (LE)” value is on record as 0.62 and the “Lipophilic Ligand Efficiency (LLE)” value was 6.8. The IC50 at androgen receptor (AR) (setting [2]) stood at 130 nM.

Regarding `CSc1ccc(C(N)=O)cc1-c1ccc2[nH]ccc2c1` [Compound 13], at androgen receptor (AR) (VCaP GRE2-luciferase IC50 ratio), the “decrease in activity relative to indazole 12” value turned out to be 10 fold. At androgen receptor (AR), the “Ligand Efficiency (LE)” value came to 0.54 and the “Lipophilic Ligand Efficiency (LLE)” value worked out at 5.1. The IC50 at androgen receptor (AR) (setting [2]) came to 10300 nM.

For the compound `CC(C)(c1ccc(OCC(O)CO)cc1)c1ccc(OCC(O)CCl)cc1` (stereo not drawn) [EPI-001, reference compound], the “PSA expression (% inhibition)” value in data set [1] came to 19%.

Regarding `Cn1ncc2cc(-c3cc(C(N)=O)ccc3SCc3ccccc3)ccc21` [Compound 40], at androgen receptor (AR), the “Ligand Efficiency (LE)” value is recorded as 0.44 and the “Lipophilic Ligand Efficiency (LLE)” value was found to be 4.9. Moreover, on androgen receptor (AR) (setting [2]), the 50% inhibitory concentration (IC50) was determined as 2200 nM.

Consider `Cn1ncc2cc(-c3cc(C(N)=O)ccc3NCCN3CCOCC3)ccc21` [Compound 54], for which, at androgen receptor (AR), the “Ligand Efficiency (LE)” value is on record as 0.37 and the “Lipophilic Ligand Efficiency (LLE)” value was determined as 6.4. In addition, the IC50 at androgen receptor (AR) (setting [2]) was greater than 30000 nM.

In the case of `Cn1ncc2cc(-c3cc(C(N)=O)ccc3OCc3ccccc3)ccc21` [Compound 47], on androgen receptor (AR), the “Ligand Efficiency (LE)” value is 0.38 and the “Lipophilic Ligand Efficiency (LLE)” value is 4.4. Further, the IC50 on androgen receptor (AR) (setting [2]) is greater than 30000 nM.

As to `CSc1ccc(C(N)=O)cc1-c1cccnc1` [Compound 22], the “activity … (in words)” value at androgen receptor (AR) (VCaP cells, 1 nM DHT) was “loss of activity”. In addition, on androgen receptor (AR), the “Ligand Efficiency (LE)” value was found to be 0.61 and the “Lipophilic Ligand Efficiency (LLE)” value was found to be 5.6. In addition, the concentration for half-maximal inhibition (IC50) on androgen receptor (AR) (setting [2]) was greater than 30000 nM.

As to `CSc1ccc(C(N)=O)cc1-c1ccno1` [Compound 7], at androgen receptor (AR), the “Ligand Efficiency (LE)” value is on record as 0.70 and the “Lipophilic Ligand Efficiency (LLE)” value is 6.7. Also, the concentration for half-maximal inhibition (IC50) on androgen receptor (AR) (setting [2]) came to 7400 nM.

As for `CC(C)COc1ccc(C(N)=O)cc1-c1ccc2c(cnn2C)c1` [Compound 51], on androgen receptor (AR) (VCaP cells, 1 nM DHT), the “activity … (in words)” value is “inactive”. Also, on androgen receptor (AR), the “Ligand Efficiency (LE)” value came out at 0.43 and the “Lipophilic Ligand Efficiency (LLE)” value stood at 4.7. For the same compound, the IC50 at androgen receptor (AR) (setting [2]) is greater than 30000 nM.

Turning to `CSc1ccc(C(N)=O)cc1-c1ccc2cnccc2c1` [Compound 21], at androgen receptor (AR), half-maximal inhibition (IC50) required 900 nM, the “Ligand Efficiency (LE)” value was 0.59 and the “Lipophilic Ligand Efficiency (LLE)” value worked out at 6.0.

`Cn1ncc2cc(-c3cc(C(N)=O)ccc3OCC3CC3)ccc21` [Compound 50]: the “activity … (in words)” value on androgen receptor (AR) (VCaP cells, 1 nM DHT) was “inactive”. In addition, on androgen receptor (AR), the “Ligand Efficiency (LE)” value came to 0.43 and the “Lipophilic Ligand Efficiency (LLE)” value was 5.1. Besides, the IC50 on androgen receptor (AR) (setting [2]) was greater than 30000 nM.

For the compound `CN(C)CCNc1ccc(C(N)=O)cc1-c1ccc2c(cnn2C)c1` [Compound 57], on androgen receptor (AR), the “Ligand Efficiency (LE)” value amounted to 0.41 and the “Lipophilic Ligand Efficiency (LLE)” value is on record as 6.4. Further, the half-inhibitory concentration (IC50) at androgen receptor (AR) (setting [2]) is greater than 30000 nM.

With `CSc1ccc(C(N)=O)cc1-c1cccs1` [Compound 9], at androgen receptor (AR), the “Ligand Efficiency (LE)” value worked out at 0.79 and the “Lipophilic Ligand Efficiency (LLE)” value was found to be 6.3. The concentration for half-maximal inhibition (IC50) on androgen receptor (AR) (setting [2]) stood at 600 nM.

For orientation: IC50 means the concentration at which inhibition is half-maximal.

Values taken from publication PMC10726465, “Synthesis and Evaluation of Small Molecule Inhibitors of the Androgen Receptor N-Terminal Domain” (ACS Medicinal Chemistry Letters, 2023).
